This note sets out measurements from patent US9993554B2 (CENTRO NACIONAL DE INVESTIGACIONES ONCOLOGICAS (CNIO), priority 2010, dated 2018).

Some results are limits rather than exact numbers.

The target of the first assay is T1, PI3K (p110α/p85α) (Homo sapiens, UniProt P42336).
T1 construct: purchased Carna Biosciences 07CBS-0402A
T1 sequence (P42336 whole entry): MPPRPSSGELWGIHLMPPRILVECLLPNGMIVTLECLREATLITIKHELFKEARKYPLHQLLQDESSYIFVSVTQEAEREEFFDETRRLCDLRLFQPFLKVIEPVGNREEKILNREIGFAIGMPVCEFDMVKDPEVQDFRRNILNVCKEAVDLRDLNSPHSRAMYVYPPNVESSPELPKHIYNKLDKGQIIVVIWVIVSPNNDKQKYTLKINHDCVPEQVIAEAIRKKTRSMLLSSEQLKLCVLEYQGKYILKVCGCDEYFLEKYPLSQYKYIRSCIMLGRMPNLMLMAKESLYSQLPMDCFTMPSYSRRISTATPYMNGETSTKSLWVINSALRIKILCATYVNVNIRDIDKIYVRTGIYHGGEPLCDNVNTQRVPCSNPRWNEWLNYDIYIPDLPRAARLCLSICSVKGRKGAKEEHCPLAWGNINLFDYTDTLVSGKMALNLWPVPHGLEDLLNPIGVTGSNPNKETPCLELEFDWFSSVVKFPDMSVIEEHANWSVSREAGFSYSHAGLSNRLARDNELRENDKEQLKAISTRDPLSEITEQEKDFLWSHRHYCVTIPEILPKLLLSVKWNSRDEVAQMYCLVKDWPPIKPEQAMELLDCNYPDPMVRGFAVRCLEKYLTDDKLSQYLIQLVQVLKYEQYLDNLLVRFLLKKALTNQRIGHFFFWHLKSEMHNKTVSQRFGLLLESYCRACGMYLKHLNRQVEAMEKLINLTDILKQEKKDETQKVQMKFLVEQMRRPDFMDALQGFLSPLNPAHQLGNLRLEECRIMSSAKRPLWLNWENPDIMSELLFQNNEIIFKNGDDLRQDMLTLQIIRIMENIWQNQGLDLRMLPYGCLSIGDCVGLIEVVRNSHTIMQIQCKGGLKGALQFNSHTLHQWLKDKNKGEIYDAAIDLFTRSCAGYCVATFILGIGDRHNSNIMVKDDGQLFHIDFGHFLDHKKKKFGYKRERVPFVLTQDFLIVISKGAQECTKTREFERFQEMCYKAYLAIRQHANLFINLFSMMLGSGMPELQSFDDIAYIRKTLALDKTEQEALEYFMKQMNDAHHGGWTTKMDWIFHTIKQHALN
T1 sequence (P27986 whole entry partner): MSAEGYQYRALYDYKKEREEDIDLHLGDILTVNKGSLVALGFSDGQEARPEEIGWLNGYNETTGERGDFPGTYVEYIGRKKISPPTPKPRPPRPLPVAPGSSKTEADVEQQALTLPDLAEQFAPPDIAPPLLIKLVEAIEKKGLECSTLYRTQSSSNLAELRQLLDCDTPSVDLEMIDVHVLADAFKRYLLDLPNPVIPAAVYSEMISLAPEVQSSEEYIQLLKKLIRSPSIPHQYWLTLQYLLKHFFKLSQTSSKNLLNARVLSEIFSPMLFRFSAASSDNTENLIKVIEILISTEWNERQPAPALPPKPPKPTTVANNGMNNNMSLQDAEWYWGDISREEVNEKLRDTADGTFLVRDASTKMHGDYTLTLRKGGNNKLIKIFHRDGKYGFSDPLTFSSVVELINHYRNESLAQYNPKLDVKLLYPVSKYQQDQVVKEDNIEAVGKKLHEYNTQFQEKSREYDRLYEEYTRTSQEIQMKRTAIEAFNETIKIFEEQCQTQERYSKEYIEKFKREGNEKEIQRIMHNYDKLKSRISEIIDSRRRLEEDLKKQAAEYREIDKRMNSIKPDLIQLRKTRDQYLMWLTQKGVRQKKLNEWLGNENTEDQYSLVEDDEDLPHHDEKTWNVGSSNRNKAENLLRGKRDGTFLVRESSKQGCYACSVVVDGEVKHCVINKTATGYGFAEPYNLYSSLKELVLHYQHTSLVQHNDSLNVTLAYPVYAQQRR
The assay is described as follows: PI3K activity assay (ADP Hunter Plus). Type of assay: biochemical. The note with it: quantitative results, Table 4; read-out: PI3Kα IC50. On the procedure: The kinase activity was measured by using the commercial ADP Hunter™ Plus assay available from DiscoveRx (#33-016), which is a homogeneous assay to measure the accumulation of ADP, a universal product of kinase activity. […] Reaction was carried out for 1 hour at 25° C. Reagent A and B were sequentially added to the wells and plates were incubated for 30 min at 37° C. […] Values were normalized against the control activity included for each enzyme (i.e., 100% PI3 kinase activity, without compound). These values were plot against the inhibitor concentration and were fit to a sigmoid dose-response curve by using the Graphad software.
For `CS(=O)(=O)N1CCN(Cc2cn3cc(-c4ccc5[nH]ncc5c4)nc(N4CCOCC4)c3n2)CC1` [Compound 2-127], the IC50 was 37000 nM.

Turning to `CS(=O)(=O)N1CC2(CCN(Cc3cn4cc(-c5cccc6[nH]ncc56)nc(N5CCOCC5)c4n3)CC2)C1` [Compound 2-145], the IC50 turned out to be 3000 nM.

Still in this assay, the particulars now being: quantitative results; read-out: PI3Kα IC50.
On to `Cc1cn2cc(-c3ccc4cc[nH]c4c3)nc(N3CCOCC3)c2n1` [Compound 2-25], for which the IC50 came to 10000 nM. As for `Cc1cn2cc(-c3cccc(NS(C)(=O)=O)c3)nc(N3CCOCC3)c2n1` [Compound 2-28], the IC50 was 50000 nM. On the same count and under the same terms, in the case of `COc1ccc(-c2cn3cc(CN4CCN(S(C)(=O)=O)CC4)nc3c(N3CCOCC3)n2)cn1` [Compound 2-61] it was 4500 nM; in that of `CS(=O)(=O)N1CCN(Cc2cn3cc(-c4ccc(N)nc4)nc(N4CCOCC4)c3n2)CC1` [Compound 2-66], 169 nM; in that of `CS(=O)(=O)N1CCN(Cc2cn3cc(-c4ccc(C(N)=O)cc4)nc(N4CCOCC4)c3n2)CC1` [Compound 2-68], 11000 nM. The same measure, in the same setting: in the case of `CS(=O)(=O)N1CCN(Cc2cn3cc(-c4cnc5[nH]ccc5c4)nc(N4CCOCC4)c3n2)CC1` [Compound 2-75] it was 113 nM. In the case of `CNC(=O)Nc1ccc(-c2cn3cc(CN4CCN(S(C)(=O)=O)CC4)nc3c(N3CCOCC3)n2)cc1` [Compound 2-82], the half-maximal inhibitory concentration (IC50) came to 158 nM. Same read-out and setting: in the case of `CS(=O)(=O)N1C2CCC1CN(Cc1cn3cc(-c4cnc(N)nc4)nc(N4CCOCC4)c3n1)C2` [Compound 2-228] it was 108 nM.

Still in this assay, the particulars now being: semi-quantitative results; read-out: PI3Kα IC50 (semi-quantitative class).
For `CS(=O)(=O)N1CCN(C(=O)c2cn3cc(-c4cccc5[nH]ncc45)nc(N4CCOCC4)c3n2)CC1` [Compound 2-16], the IC50 was in the range of 100 to 1000 nM. As for `O=C(c1cn2cc(-c3cccc4[nH]ncc34)nc(N3CCOCC3)c2n1)N1CCNCC1` [Compound 2-18], the IC50 was in the range of 100 to 1000 nM. Same read-out and setting: in the case of `CN1CCN(c2cnc3c(N4CCOCC4)nc(-c4cccc(O)c4)cn23)CC1` [Compound 2-37] it was 100 to 1000 nM. Consider `CN1CCN(c2cnc3c(N4CCOCC4)nc(-c4cccc5[nH]ncc45)cn23)CC1` [Compound 2-38], for which the IC50 was 100 to 1000 nM. As for `CS(=O)(=O)N1CCN(c2cnc3c(N4CCOCC4)nc(-c4cccc(O)c4)cn23)CC1` [Compound 2-39], the concentration for half-maximal inhibition (IC50) lay in the range of 100 to 1000 nM. For `Oc1cccc(-c2cn3c(N4CCNCC4)cnc3c(N3CCOCC3)n2)c1` [Compound 2-40], the IC50 lay in the range of 100 to 1000 nM. `CS(=O)(=O)N1CCN(c2cnc3c(N4CCOCC4)nc(-c4cccc5[nH]ncc45)cn23)CC1` [Compound 2-41]: the IC50 lay in the range of 100 to 1000 nM. On to `Cc1cn2c(Cl)c(-c3cccc(O)c3)nc(N3CCOCC3)c2n1` [Compound 2-49], for which the IC50 lay within 100 to 1000 nM. Regarding `Cc1nc2c(N3CCOCC3)nc(-c3cccc4[nH]ncc34)cn2c1C1CCN(C)CC1` [Compound 2-58], the IC50 is 100 to 1000 nM. Same read-out and setting: in the case of `CS(=O)(=O)N1CCN(Cc2cn3c(Cl)c(-c4cccc5[nH]ncc45)nc(N4CCOCC4)c3n2)CC1` [Compound 2-60] it was 100 to 1000 nM.

Regarding `COc1cncc(-c2cn3cc(CN4CCN(S(C)(=O)=O)CC4)nc3c(N3CCOCC3)n2)c1` [Compound 2-65], the half-maximal inhibitory concentration (IC50) was over 1000 nM. Still for that read-out and setting: in the case of `COc1ncc(-c2cn3cc(CN4CCN(S(C)(=O)=O)CC4)nc3c(N3CCOCC3)n2)cn1` [Compound 2-67] it was 100 to 1000 nM.

The test system of a further assay is phospho-Ser-473-Akt. The assay is described as follows: AKT phosphorylation inhibition, Western blot cell assay. Type of assay: cell-based. The note with it: Homo sapiens; cell assay procedure; read-out: IC50 of AKT Phosphorylation Inhibition, p-AKT cell. Here is the method:
The cell lines were obtained from the American Type Culture Collection (ATCC). U2OS (human osteosarcoma) was cultured in Dulbecco's modified Eagle's medium (DMEM). PC3 (human prostate carcinoma), MCF7 (human breast cardinoma), HCT116 (human colon carcinoma), 768-0 (human neuroblastoma), U251 (human glyoblastoma) were grown in RPMI. All media were supplemented with 10% fetal bovine serum (FBS) (Sigma) and antibiotics-antimycotics. Cell were maintained in a humidified incubator at 37° C. with 5% CO2 and passaged when confluent using trypsin/EDTA.
Subconfluent cells were incubated under different conditions and washed twice with TBS prior to lysis. Lysis buffer was added containing 50 mM Tris HCl, 150 mM NaCl, 1% NP-40, 2 mM Na3VO4, 100 mM NaF, 20 mM Na4P2O7 and protease inhibitor cocktail (Roche Molecular Biochemicals). The proteins were resolved on 10% SDS-PAGE and transferred to nitrocellulose membrane (Schleicher & Schuell, Dassel, Germany). The membranes were incubated overnight at 4° C. with antibodies specific for Akt, phospho-Ser-473-Akt (Cell Signaling Technology) and α-tubulin (Sigma), they were washed and then incubated with IRDye800 conjugated anti-mouse and Alexa Fluor 680 goat anti-rabbit IgG secondary antibodies. The bands were visualized using an Odyssey infrared imaging system (Li-Cor Biosciences).
Regarding `CS(=O)(=O)N1CCN(C(=O)c2cn3cc(-c4cccc5[nH]ncc45)nc(N4CCOCC4)c3n2)CC1` [Compound 2-16], the IC50 amounted to 503 nM. For `CS(=O)(=O)N1CCN(Cc2cn3cc(-c4ccc(N)nc4)nc(N4CCOCC4)c3n2)CC1` [Compound 2-66], the IC50 was 14 nM. Still for that read-out and setting: in the case of `COc1ncc(-c2cn3cc(CN4CCN(S(C)(=O)=O)CC4)nc3c(N3CCOCC3)n2)cn1` [Compound 2-67] it was 198 nM; in that of `CS(=O)(=O)N1CCN(Cc2cn3cc(-c4cnc5[nH]ccc5c4)nc(N4CCOCC4)c3n2)CC1` [Compound 2-75], 77 nM.

The IC50 is the concentration needed to halve the response being measured.
